Experimental data from ChEMBL document CHEMBL3137667, “[Drug-induced liver injury; fourteenth updated edition of the bibliographic database of liver injuries and related drugs]” (Gastroenterol Clin Biol, 2004).

Assays:
[1] = human
[2] = Comments (NB not yet translated). [column 'COMMENTAIRES' in source]; settings: human
[3] = human, serum, 4383 h
[4] = human; remark: listed apart in the source
[5] = human; remark: listed apart in the source
[6] = human; remark: listed apart in the source
[7] = Presence of at least one case with successful reintroduction. [column 'REINT' in source]; settings: human
[8] = Times to onset, minimal and maximal, observed in the indexed observations. [column 'DELAI' in source]; settings: human
[9] = Proposed mechanism(s) of liver damage. [column 'MEC' in source]; settings: human
[10] = human; remark: listed apart in the source
[11] = human, serum
[12] = human; remark: listed apart in the source
[13] = human; remark: listed apart in the source
[14] = Highest frequency of acute liver toxicity observed during clinical trials, expressed as a percentage. [column '% AIGUE' in source]; settings: human
[15] = human; remark: listed apart in the source
[16] = human, serum; remark: listed apart in the source
[17] = human; remark: listed apart in the source
[18] = Highest frequency of moderate liver toxicity observed during clinical trials, expressed as a percentage. [column '% BIOL' in source]; settings: human
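For Hepatotoxicity (association with vascular disease) in this document: count of indexed literature references reporting vascular liver injury in humans, e.g. peliosis hepatitis, hepatic veno-occlusive disease or Budd-Chiari syndrome.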
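For Hepatotoxicity (benign tumour) in this document: value is a count of indexed literature references citing a benign tumour confirmed by histopathology.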
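For Hepatotoxicity (choleostasis) in this document: human cholestatic liver injury, shown by histopathology or by peak ALT or AST elevation over alkaline phosphatase ratio below 2, value counts indexed literature reports.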
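For Hepatotoxicity (chronic liver disease) in this document: chronic liver injury confirmed by histopathology or persistently raised serum aminotransferase activity beyond 6 months, value given as the count of indexed literature references.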
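For Hepatotoxicity (cirrhosis) in this document: value is a count of indexed literature references reporting cirrhosis confirmed by histopathology.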
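For Hepatotoxicity (cytolytic) in this document: human cytolytic liver injury, shown by histopathology or by a ratio above 5 of peak ALT or AST elevation to alkaline phosphatase elevation, value counts indexed references.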
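For Hepatotoxicity (granulomatous hepatitis) in this document: value is a count of indexed literature references reporting granulomatous liver disease confirmed by histopathology.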
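For Hepatotoxicity (malignant tumour) in this document: malignant tumour confirmed by histopathology, value gives the count of indexed literature references reporting it.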
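For Hepatotoxicity (severe hepatitis) in this document: human clinical data: severe hepatitis, meaning potentially life-threatening liver failure or clinically observed cases, the value counts how many indexed literature references report it.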
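For Hepatotoxicity (steatosis) in this document: steatosis confirmed by histopathology, value is the count of indexed references.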

CCn1cc(C(=O)O)c(=O)c2cc(F)c(N3CCNCC3)cc21 [NORFLOXACIN]
Hepatotoxicity (cytolytic) ([1]; Liver): 3 | Hepatotoxicity (comment) [2]: AC_ANTI-N | Hepatotoxicity (chronic liver disease) [3]: 0 | Hepatotoxicity (severe hepatitis) ([4]; Liver): 0 | Hepatotoxicity (association with vascular disease) [5]: 0 | Hepatotoxicity (steatosis) [6]: 0 | Hepatotoxicity (successful reintroduction) [7]: yes | Hepatotoxicity (time to onset) [8]: 1 day - 10 days | Hepatotoxicity (mechanism) ([9]; Liver): Allergic | Hepatotoxicity (benign tumour) [10]: 0 | Hepatotoxicity (moderate) [11]: 15 | Hepatotoxicity (cirrhosis) [12]: 0 | Hepatotoxicity (choleostasis) ([13]; Liver): 6 | Hepatotoxicity (acute) ([14]; Liver): 0% | Hepatotoxicity (granulomatous hepatitis) ([15]; Liver): 0 | Hepatotoxicity (acute) [16]: 9 | Hepatotoxicity (malignant tumour) [17]: 0 | Hepatotoxicity (moderate) ([18]; Liver): 7.7%

Cc1ncc([N+](=O)[O-])n1CC(O)CCl (configuration not stated) [ORNIDAZOLE]
Hepatotoxicity (cytolytic) [1]: 2 | Hepatotoxicity (comment) [2]: AC_ANTI-ML/-N | Hepatotoxicity (chronic liver disease) [3]: 1 | Hepatotoxicity (severe hepatitis) [4]: 0 | Hepatotoxicity (association with vascular disease) [5]: 0 | Hepatotoxicity (steatosis) [6]: 0 | Hepatotoxicity (successful reintroduction) [7]: yes | Hepatotoxicity (time to onset) [8]: 3 days - 6 months | Hepatotoxicity (mechanism) [9]: Allergic | Hepatotoxicity (benign tumour) [10]: 0 | Hepatotoxicity (moderate) [11]: 1 | Hepatotoxicity (cirrhosis) [12]: 0 | Hepatotoxicity (choleostasis) [13]: 0 | Hepatotoxicity (acute) [14]: 0% | Hepatotoxicity (granulomatous hepatitis) [15]: 0 | Hepatotoxicity (acute) [16]: 2 | Hepatotoxicity (malignant tumour) [17]: 0 | Hepatotoxicity (moderate) [18]: 0%

Cc1onc(-c2ccccc2)c1C(=O)N[C@@H]1C(=O)N2[C@@H]1SC(C)(C)[C@@H]2C(=O)O [OXACILLIN]
Hepatotoxicity (cytolytic) [1]: 14 | Hepatotoxicity (comment) [2]: RC/CEFALOTINE/NAFCILLINE | Hepatotoxicity (chronic liver disease) [3]: 0 | Hepatotoxicity (severe hepatitis) [4]: 0 | Hepatotoxicity (association with vascular disease) [5]: 0 | Hepatotoxicity (steatosis) [6]: 1 | Hepatotoxicity (successful reintroduction) [7]: yes | Hepatotoxicity (time to onset) [8]: 2 days - 2.5 months | Hepatotoxicity (mechanism) [9]: Allergic, Toxic Metabolite | Hepatotoxicity (benign tumour) [10]: 0 | Hepatotoxicity (moderate) [11]: 12 | Hepatotoxicity (cirrhosis) [12]: 0 | Hepatotoxicity (choleostasis) [13]: 4 | Hepatotoxicity (acute) [14]: 22% | Hepatotoxicity (granulomatous hepatitis) [15]: 1 | Hepatotoxicity (acute) [16]: 17 | Hepatotoxicity (malignant tumour) [17]: 0 | Hepatotoxicity (moderate) [18]: 81%

O=C1Nc2ccccc2C1(c1ccc(O)cc1)c1ccc(O)cc1 [OXYPHENISATINE]
Hepatotoxicity (cytolytic) [1]: 1 | Hepatotoxicity (comment) [2]: AC_ANTI-ADN/-N/-ML | Hepatotoxicity (chronic liver disease) [3]: 27 | Hepatotoxicity (severe hepatitis) [4]: 1 | Hepatotoxicity (association with vascular disease) [5]: 0 | Hepatotoxicity (steatosis) [6]: 0 | Hepatotoxicity (successful reintroduction) [7]: yes | Hepatotoxicity (time to onset) [8]: 1 week - 13 years | Hepatotoxicity (mechanism) [9]: Allergic | Hepatotoxicity (benign tumour) [10]: 0 | Hepatotoxicity (moderate) [11]: 0 | Hepatotoxicity (cirrhosis) [12]: 8 | Hepatotoxicity (choleostasis) [13]: 0 | Hepatotoxicity (acute) [14]: 0% | Hepatotoxicity (granulomatous hepatitis) [15]: 0 | Hepatotoxicity (acute) [16]: 6 | Hepatotoxicity (malignant tumour) [17]: 0 | Hepatotoxicity (moderate) [18]: 0%

COc1ccc(Cc2nccc3cc(OC)c(OC)cc23)cc1OC [PAPAVERINE]
Hepatotoxicity (cytolytic) [1]: 7 | Hepatotoxicity (comment) [2]: AC_ANTI-ADN/-N PERICHOLANGITE | Hepatotoxicity (chronic liver disease) [3]: 4 | Hepatotoxicity (severe hepatitis) [4]: 0 | Hepatotoxicity (association with vascular disease) [5]: 0 | Hepatotoxicity (steatosis) [6]: 0 | Hepatotoxicity (successful reintroduction) [7]: yes | Hepatotoxicity (time to onset) [8]: 1 day - 11 years | Hepatotoxicity (mechanism) [9]: Allergic, Toxic Metabolite | Hepatotoxicity (benign tumour) [10]: 0 | Hepatotoxicity (moderate) [11]: 11 | Hepatotoxicity (cirrhosis) [12]: 3 | Hepatotoxicity (choleostasis) [13]: 6 | Hepatotoxicity (acute) [14]: 3.3% | Hepatotoxicity (granulomatous hepatitis) [15]: 1 | Hepatotoxicity (acute) [16]: 9 | Hepatotoxicity (malignant tumour) [17]: 0 | Hepatotoxicity (moderate) [18]: 53%

NC1=NC(=O)C(c2ccccc2)O1 (configuration not stated) [PEMOLINE]
Hepatotoxicity (cytolytic) [1]: 14 | Hepatotoxicity (comment) [2]: AC_ANTI-MF/-N AGGRAVATION_HEPATITE_AUTOIMMUNE | Hepatotoxicity (chronic liver disease) [3]: 0 | Hepatotoxicity (severe hepatitis) [4]: 10 | Hepatotoxicity (association with vascular disease) [5]: 0 | Hepatotoxicity (steatosis) [6]: 1 | Hepatotoxicity (successful reintroduction) [7]: yes | Hepatotoxicity (time to onset) [8]: 3 days - 3 years | Hepatotoxicity (mechanism) [9]: Allergic, Dose-dependant | Hepatotoxicity (benign tumour) [10]: 0 | Hepatotoxicity (moderate) [11]: 4 | Hepatotoxicity (cirrhosis) [12]: 0 | Hepatotoxicity (choleostasis) [13]: 0 | Hepatotoxicity (acute) [14]: 0.3% | Hepatotoxicity (granulomatous hepatitis) [15]: 0 | Hepatotoxicity (acute) [16]: 16 | Hepatotoxicity (malignant tumour) [17]: 0 | Hepatotoxicity (moderate) [18]: 2%

CC(C)(S)[C@@H](N)C(=O)O [PENICILLAMINE]
Hepatotoxicity (cytolytic) [1]: 5 | Hepatotoxicity (comment) [2]: CHOLESTASE_PROLONGEE CHOLANGITE | Hepatotoxicity (chronic liver disease) [3]: 1 | Hepatotoxicity (severe hepatitis) [4]: 0 | Hepatotoxicity (association with vascular disease) [5]: 0 | Hepatotoxicity (steatosis) [6]: 5 | Hepatotoxicity (successful reintroduction) [7]: yes | Hepatotoxicity (time to onset) [8]: 4 days - 2 years | Hepatotoxicity (mechanism) [9]: Allergic | Hepatotoxicity (benign tumour) [10]: 0 | Hepatotoxicity (moderate) [11]: 12 | Hepatotoxicity (cirrhosis) [12]: 0 | Hepatotoxicity (choleostasis) [13]: 28 | Hepatotoxicity (acute) [14]: 0% | Hepatotoxicity (granulomatous hepatitis) [15]: 2 | Hepatotoxicity (acute) [16]: 31 | Hepatotoxicity (malignant tumour) [17]: 0 | Hepatotoxicity (moderate) [18]: 6%

CCC1(c2ccccc2)C(=O)NC(=O)NC1=O [PHENOBARBITAL]
Hepatotoxicity (cytolytic) [1]: 23 | Hepatotoxicity (comment) [2]: I/PARACETAMOL AC_ANTI-N/-MF CHOLANGITE | Hepatotoxicity (chronic liver disease) [3]: 1 | Hepatotoxicity (severe hepatitis) [4]: 10 | Hepatotoxicity (association with vascular disease) [5]: 0 | Hepatotoxicity (steatosis) [6]: 1 | Hepatotoxicity (successful reintroduction) [7]: yes | Hepatotoxicity (time to onset) [8]: 6 days - 2 years | Hepatotoxicity (mechanism) [9]: Allergic | Hepatotoxicity (benign tumour) [10]: 0 | Hepatotoxicity (moderate) [11]: 8 | Hepatotoxicity (cirrhosis) [12]: 0 | Hepatotoxicity (choleostasis) [13]: 4 | Hepatotoxicity (acute) [14]: 0% | Hepatotoxicity (granulomatous hepatitis) [15]: 1 | Hepatotoxicity (acute) [16]: 30 | Hepatotoxicity (malignant tumour) [17]: 0 | Hepatotoxicity (moderate) [18]: 0%

CCC(c1ccccc1)c1c(O)c2ccccc2oc1=O (configuration not stated) [PHENPROCOUMON]
Hepatotoxicity (cytolytic) [1]: 14 | Hepatotoxicity (comment) [2]: RC/ACENOCOUMAROL/WARFARINE CHOLANGITE AC_ANTI-ML/-N | Hepatotoxicity (chronic liver disease) [3]: 1 | Hepatotoxicity (severe hepatitis) [4]: 4 | Hepatotoxicity (association with vascular disease) [5]: 0 | Hepatotoxicity (steatosis) [6]: 0 | Hepatotoxicity (successful reintroduction) [7]: yes | Hepatotoxicity (time to onset) [8]: 6 days - 7 years | Hepatotoxicity (mechanism) [9]: Allergic | Hepatotoxicity (benign tumour) [10]: 0 | Hepatotoxicity (moderate) [11]: 2 | Hepatotoxicity (cirrhosis) [12]: 1 | Hepatotoxicity (choleostasis) [13]: 7 | Hepatotoxicity (acute) [14]: 0% | Hepatotoxicity (granulomatous hepatitis) [15]: 1 | Hepatotoxicity (acute) [16]: 18 | Hepatotoxicity (malignant tumour) [17]: 0 | Hepatotoxicity (moderate) [18]: 37%
